From PubChem BioAssay AID1033 (Sanford-Burnham Center for Chemical Genomics, 2008) come the findings set out here.

The source made the active and inactive calls. The rule behind the calls is not given here.

This test has as its target Chaperone protein DnaK (Escherichia coli (strain K12)) (UniProt P0A6Y8). The test is described as follows: E. coli DnaK SBD ligand binding – biophysical, NMR, chaperone (AID 1033). As to conditions: Purified DnaK SBD.

Chaperone protein DnaK (Escherichia coli (strain K12)), sequence (P0A6Y8 whole entry, looked up): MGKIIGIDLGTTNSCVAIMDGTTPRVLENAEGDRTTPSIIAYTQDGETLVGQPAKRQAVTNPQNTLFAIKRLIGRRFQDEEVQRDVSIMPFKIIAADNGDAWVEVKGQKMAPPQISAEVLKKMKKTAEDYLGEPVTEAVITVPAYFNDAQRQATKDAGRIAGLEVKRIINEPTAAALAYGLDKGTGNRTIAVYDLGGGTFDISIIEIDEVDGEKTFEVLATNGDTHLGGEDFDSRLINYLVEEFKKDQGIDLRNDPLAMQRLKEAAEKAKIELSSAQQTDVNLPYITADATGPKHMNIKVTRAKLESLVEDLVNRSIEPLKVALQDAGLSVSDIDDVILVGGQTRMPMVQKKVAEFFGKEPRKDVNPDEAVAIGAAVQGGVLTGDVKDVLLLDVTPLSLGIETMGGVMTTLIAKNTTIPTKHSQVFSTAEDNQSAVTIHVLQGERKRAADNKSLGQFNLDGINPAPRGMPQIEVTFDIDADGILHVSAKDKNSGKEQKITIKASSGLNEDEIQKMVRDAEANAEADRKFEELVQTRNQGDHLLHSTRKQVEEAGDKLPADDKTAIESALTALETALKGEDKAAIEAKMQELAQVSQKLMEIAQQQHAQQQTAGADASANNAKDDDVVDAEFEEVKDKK

Consider `COc1ccc2c(c1OC)C(=O)O[C@H]2[C@H]1c2cc3c(cc2CCN1C)OCO3`, for which the Kd was > 4 mM (inactive). As to `C=C1C2CC[C@@]3(C)[C@H](c4ccoc4)OC(=O)C[C@]13O[C@H]1CC(=O)C(C)(C)[C@H](C(O)C(=O)OC)[C@@]21C` (some centres not stated), the Kd is > 4 mM (inactive).

As to `COCC(=O)NC1CC(C)(C)NC(C)(C)C1`, the Kd is > 4 mM (inactive). As for `Cc1nc(N)sc1C(=O)N/N=C/c1ccncc1`, the figure is > 4 mM (inactive); as for `O=C(c1ccco1)N1CCCN(C(=O)c2ccco2)CC1`, > 4 mM (inactive). For `Cc1ccc(NC(=O)N2CCC(C(N)=O)CC2)cc1`, the Kd is > 4 mM (inactive).

On to `COc1ccc(CN2CCC(O)CC2)c(O)c1`, for which the Kd is > 4 mM (inactive). With `C=CCNC(=O)c1ccc(Cl)cc1Cl`, the Kd was > 4 mM (inactive). With `CNC[C@@H](O)c1ccc(O)c(O)c1` the figure was > 4 mM (inactive); with `CC(=O)NCC1OCCc2ccccc21` (configuration not stated), > 4 mM (inactive). Regarding `Cc1ccnc(NS(=O)(=O)c2ccccc2)n1`, the Kd is > 4 mM (inactive). With `Cc1cc(=O)n2[nH]c(N)nc2n1` the figure was > 4 mM (inactive); with `Cn1c(SCC(N)=O)nc2ccccc2c1=O`, > 4 mM (inactive); with `COCC(=O)Nc1nc2ccc(C)cc2s1`, > 4 mM (inactive). Take `Cc1cc(O)cc(O)c1C(=O)O`: the Kd was > 4 mM (inactive).

Regarding `Cc1n[nH]c(C)c1-c1ccccc1C(=O)O`, the Kd was > 4 mM (inactive). As for `CC(C)CCn1cnc2c1c(=O)n(C)c(=O)n2C`, the figure is > 4 mM (inactive); as for `CC1CN=C(Nc2ccccc2)S1` (configuration not stated), > 4 mM (inactive).

As for `Cc1noc(C)c1C(=O)Nc1sc(C)c(C)c1C#N`, the Kd was > 4 mM (inactive). As for `COc1cc(-c2csc(C)n2)ccc1O`, the figure is > 4 mM (inactive). Regarding `CC(=O)CS(=O)(=O)c1ccccc1`, the Kd is > 4 mM (inactive). With `Cc1nnsc1C(=O)O`, the Kd was > 4 mM (inactive). With `Cc1cc(C(=O)Nn2cnnc2)cs1` the figure was > 4 mM (inactive); with `NC(N)=NOCC[C@H](N)C(=O)O`, > 4 mM (inactive). As for `CN(C)C(=S)Nc1nc2ccccc2s1`, the Kd was > 4 mM (inactive). With `CC1=C(C(N)=O)C(c2cccs2)C(C(N)=O)=C(C)N1` the figure was > 4 mM (inactive). With `Cc1ccc(-c2nc(-c3cccnc3)no2)c(C)c1` the figure was > 4 mM (inactive). With `COC(=O)c1ccc(NC(=O)CC2NCCNC2=O)cc1` (configuration not stated) the figure was > 4 mM (inactive); with `Cc1nn(CC(=O)Nc2ccccc2)c(=O)c2ccccc12`, > 4 mM (inactive). On to `O=C(O)C12CC3CC(CC(O)(C3)C1)C2`, for which the Kd was > 4 mM (inactive).

Regarding `COc1cc(/C=C/C(=O)O)cc(OC)c1OC`, the Kd is > 4 mM (inactive). With `O=C(N1CCOCC1)N1CCN(c2ccccn2)CC1` the figure was > 4 mM (inactive).

On to `O=C(Nc1ccc2c(c1)OCO2)c1cccc(F)c1`, for which the Kd was > 4 mM (inactive). `NC(C(=O)O)C(O)c1ccccc1` (configuration not stated): the Kd is > 4 mM (inactive). With `O=C(Nc1ccc2ccccc2c1)c1cnccn1` the figure was > 4 mM (inactive); with `CCNC(CC(=O)Nc1cccc([N+](=O)[O-])c1)C(=O)O` (configuration not stated), > 4 mM (inactive); with `CC(C)c1ccc(NC(=O)C(N)=O)cc1`, > 4 mM (inactive). `C=C[C@H]1CN2CC[C@H]1C[C@H]2[C@H](O)c1ccnc2ccccc12`: the Kd is > 4 mM (inactive). With `NS(=O)(=O)c1ccccc1Cl` the figure was > 4 mM (inactive). For `NCc1cccc(-n2cccc2)c1`, the Kd is > 4 mM (inactive).

As for `O=C1CC(N2CCC(O)CC2)C(=O)N1c1ccc(F)cc1` (configuration not stated), the Kd was > 4 mM (inactive).

For `CCOC(=O)c1c(C)cc(OC)cc1O`, the Kd is > 4 mM (inactive).
